Experiments:
NEDD8 activating enzyme [1] = target: T1, NEDD8 activating enzyme (Homo sapiens, UniProt Q8TBC4); assay: Inhibition of NAE (unknown origin) mediated neddylation assessed as decrease in NEDD8-Ubcl2 adduct formation incubated for 2 hrs in presence of L-glutathione and ATP by HTRF assay; type: protein-complex assay
T1 sequence (Q8TBC4 whole entry): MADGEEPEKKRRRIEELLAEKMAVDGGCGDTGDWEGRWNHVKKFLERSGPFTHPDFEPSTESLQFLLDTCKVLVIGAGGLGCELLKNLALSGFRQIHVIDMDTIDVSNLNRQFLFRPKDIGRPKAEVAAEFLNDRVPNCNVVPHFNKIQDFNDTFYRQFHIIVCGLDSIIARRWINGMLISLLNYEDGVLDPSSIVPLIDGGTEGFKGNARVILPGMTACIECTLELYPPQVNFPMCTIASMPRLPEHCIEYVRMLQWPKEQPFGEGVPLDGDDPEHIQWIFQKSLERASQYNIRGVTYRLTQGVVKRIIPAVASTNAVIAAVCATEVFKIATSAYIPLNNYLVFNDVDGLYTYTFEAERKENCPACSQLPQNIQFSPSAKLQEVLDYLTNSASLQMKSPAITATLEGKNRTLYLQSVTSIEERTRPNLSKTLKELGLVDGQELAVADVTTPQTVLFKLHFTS
T1 sequence (Q13564 whole entry): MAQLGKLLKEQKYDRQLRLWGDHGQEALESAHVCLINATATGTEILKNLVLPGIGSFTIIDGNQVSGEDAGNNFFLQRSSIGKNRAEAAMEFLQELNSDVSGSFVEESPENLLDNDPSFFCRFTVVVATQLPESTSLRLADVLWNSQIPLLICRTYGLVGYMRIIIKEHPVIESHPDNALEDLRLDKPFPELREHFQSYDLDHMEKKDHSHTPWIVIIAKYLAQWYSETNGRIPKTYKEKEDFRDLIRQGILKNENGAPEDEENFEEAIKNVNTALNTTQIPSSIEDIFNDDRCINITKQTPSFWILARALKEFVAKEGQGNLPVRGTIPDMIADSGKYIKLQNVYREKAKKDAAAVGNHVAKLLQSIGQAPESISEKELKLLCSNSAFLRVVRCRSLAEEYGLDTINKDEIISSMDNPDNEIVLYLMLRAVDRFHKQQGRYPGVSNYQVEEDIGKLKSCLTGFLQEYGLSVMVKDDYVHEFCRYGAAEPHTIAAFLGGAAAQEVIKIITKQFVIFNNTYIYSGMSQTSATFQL

HCT-116 = assay: Antiproliferative activity against human HCT-116 cells assessed as cell growth inhibition by sulforhodamine B assay; type: functional, cell-based
[2] = target: Voltage-gated inwardly rectifying potassium channel KCNH2 (Homo sapiens, UniProt Q12809); assay: Inhibition of hERG channel; type: toxicity
NEDD8 activating enzyme [3] = target: T1, NEDD8 activating enzyme; assay: Inhibition of NAE (unknown origin); type: protein-complex assay
NEDD8 activating enzyme [4] = target: T1, NEDD8 activating enzyme; assay: Inhibition of NAE in human HCT-116 cells incubated for 1 hr by Western blot analysis; type: cell-based

Voltage-gated inwardly rectifying potassium channel KCNH2, sequence (Q12809 whole entry): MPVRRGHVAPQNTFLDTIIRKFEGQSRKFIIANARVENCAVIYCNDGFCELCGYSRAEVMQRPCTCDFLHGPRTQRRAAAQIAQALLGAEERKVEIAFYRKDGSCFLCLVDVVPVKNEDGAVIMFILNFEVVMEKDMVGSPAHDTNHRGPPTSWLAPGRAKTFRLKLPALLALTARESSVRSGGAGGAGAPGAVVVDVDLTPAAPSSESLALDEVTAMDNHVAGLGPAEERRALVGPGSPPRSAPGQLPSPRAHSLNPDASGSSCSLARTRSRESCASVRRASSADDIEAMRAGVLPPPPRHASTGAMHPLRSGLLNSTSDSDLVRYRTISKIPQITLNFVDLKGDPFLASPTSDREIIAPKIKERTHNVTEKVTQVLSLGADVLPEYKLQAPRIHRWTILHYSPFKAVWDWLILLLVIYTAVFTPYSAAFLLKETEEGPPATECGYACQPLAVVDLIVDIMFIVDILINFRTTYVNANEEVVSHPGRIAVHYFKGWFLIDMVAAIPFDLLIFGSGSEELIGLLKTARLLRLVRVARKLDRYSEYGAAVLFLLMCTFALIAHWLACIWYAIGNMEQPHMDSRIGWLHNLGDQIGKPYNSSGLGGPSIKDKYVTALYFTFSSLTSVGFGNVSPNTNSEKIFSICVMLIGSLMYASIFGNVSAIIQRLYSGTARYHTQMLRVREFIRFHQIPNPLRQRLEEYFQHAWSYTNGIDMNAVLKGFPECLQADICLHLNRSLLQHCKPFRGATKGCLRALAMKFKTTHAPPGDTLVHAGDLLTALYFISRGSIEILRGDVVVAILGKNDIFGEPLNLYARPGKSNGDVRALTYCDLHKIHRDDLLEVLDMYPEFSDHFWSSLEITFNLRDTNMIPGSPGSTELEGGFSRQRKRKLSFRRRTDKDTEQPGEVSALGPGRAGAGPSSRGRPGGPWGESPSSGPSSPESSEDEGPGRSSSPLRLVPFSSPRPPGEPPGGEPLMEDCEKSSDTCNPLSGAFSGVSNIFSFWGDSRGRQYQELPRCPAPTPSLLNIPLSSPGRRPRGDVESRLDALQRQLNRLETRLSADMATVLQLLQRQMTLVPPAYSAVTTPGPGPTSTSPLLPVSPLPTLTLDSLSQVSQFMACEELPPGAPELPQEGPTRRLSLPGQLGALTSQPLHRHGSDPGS

| IC50 (NEDD8 activating enzyme [1]) [nM] | IC50 (HCT-116) [nM] | SMILES | further results |
| --- | --- | --- | --- |
| 6 | 104 | NS(=O)(=O)OC[C@@H]1C[C@@H](n2nnc3c(N[C@H]4CC5(CCN(C(=O)OCCF)CC5)c5ccccc54)ncnc32)C[C@@H]1O |  |
| > 10000 |  | NS(=O)(=O)OC[C@@H]1C[C@@H](n2nnc3c(Nn4ccc5ccccc54)ncnc32)C[C@@H]1O |  |
| 30.6 |  | NS(=O)(=O)OC[C@@H]1C[C@@H](n2nnc3c(NCc4ccco4)ncnc32)C[C@@H]1O |  |
| 9.98 | 338 | NS(=O)(=O)OC[C@@H]1C[C@@H](n2nnc3c(N[C@H]4CC5(CCN(C(=O)OCCN6CCOCC6)CC5)c5ccccc54)ncnc32)C[C@@H]1O |  |
| > 10000 |  | NS(=O)(=O)OC[C@@H]1C[C@@H](n2nnc3c(NC4CCCC4)ncnc32)C[C@@H]1O |  |
| > 10000 |  | NS(=O)(=O)OC[C@@H]1C[C@@H](n2nnc3c(Nc4cnc5ccccn45)ncnc32)C[C@@H]1O |  |
| 21.1 |  | NS(=O)(=O)OC[C@@H]1C[C@@H](n2nnc3c(N[C@H]4CC5(CCN(C(=O)OC(C(F)(F)F)C(F)(F)F)CC5)c5ccccc54)ncnc32)C[C@@H]1O |  |
| 2.28 | 38.8 | NS(=O)(=O)OC[C@@H]1C[C@@H](n2nnc3c(N[C@@H]4c5ccccc5C[C@@H]4O)ncnc32)C[C@@H]1O | IC50 [2]: > 40000 nM |
| 170 |  | COCC(=O)N[C@H]1Cc2ccccc2[C@H]1Nc1ncnc2c1nnn2[C@@H]1C[C@@H](COS(N)(=O)=O)[C@@H](O)C1 |  |
| 107 |  | NS(=O)(=O)OC[C@@H]1C[C@@H](n2nnc3c(NCCc4cccs4)ncnc32)C[C@@H]1O |  |
| 3.56 | 70.2 | COCCO[C@H]1Cc2ccccc2[C@H]1Nc1ncnc2c1nnn2[C@@H]1C[C@@H](COS(N)(=O)=O)[C@@H](O)C1 |  |
| > 10000 |  | NS(=O)(=O)OC[C@@H]1C[C@@H](n2nnc3c(Nc4n[nH]c5ccccc45)ncnc32)C[C@@H]1O |  |
| 80.9 |  | COC(=O)[C@H]1C=C[C@@H](Nc2ncnc3c2nnn3[C@@H]2C[C@@H](COS(N)(=O)=O)[C@@H](O)C2)C1 |  |
| 0.57 | 110 | NS(=O)(=O)OC[C@@H]1C[C@@H](n2nnc3c(N[C@H]4CC5(CCN(C(=O)O[C@@H]6CCOC6)CC5)c5ccccc54)ncnc32)C[C@@H]1O |  |
| > 10000 |  | NS(=O)(=O)OC[C@@H]1C[C@@H](n2ncc3c(N[C@H]4CCc5ccccc54)ccnc32)C[C@@H]1O |  |
| 149 |  | NS(=O)(=O)OC[C@@H]1C[C@@H](n2nnc3c(NCCCc4ccccc4)ncnc32)C[C@@H]1O |  |
| 0.02 | 151 | CC(C)(C)NC(=O)N1CCC2(CC1)C[C@H](Nc1ncnc3c1nnn3[C@@H]1C[C@@H](COS(N)(=O)=O)[C@@H](O)C1)c1ccccc12 |  |

| IC50 (NEDD8 activating enzyme [1]) [nM] | IC50 (HCT-116) [nM] | SMILES | further results |
| --- | --- | --- | --- |
| 6.11 | 3860 | NS(=O)(=O)OC[C@@H]1C[C@@H](n2nnc3c(NCc4ccccc4F)ncnc32)C[C@@H]1O |  |
| 81.8 |  | NS(=O)(=O)OC[C@@H]1C[C@@H](n2nnc3c(NCCc4ccccc4)ncnc32)C[C@@H]1O |  |
| 207 |  | CN(C)[C@H]1Cc2ccccc2[C@H]1Nc1ncnc2c1nnn2[C@@H]1C[C@@H](COS(N)(=O)=O)[C@@H](O)C1 |  |
| > 10000 |  | COCC(=O)N[C@@H]1Cc2ccccc2[C@H]1Nc1ncnc2c1nnn2[C@@H]1C[C@@H](COS(N)(=O)=O)[C@@H](O)C1 |  |
| 21.1 |  | CCCCCCNc1ncnc2c1nnn2[C@@H]1C[C@@H](COS(N)(=O)=O)[C@@H](O)C1 |  |
| 0.21 | 43.2 | NS(=O)(=O)OC[C@@H]1C[C@@H](n2nnc3c(N[C@H]4CCc5ccccc54)ncnc32)C[C@@H]1O | IC50 [2]: > 40000 nM |
| 2.23 | 102 | CCOC(=O)N1CCC2(CC1)C[C@H](Nc1ncnc3c1nnn3[C@@H]1C[C@@H](COS(N)(=O)=O)[C@@H](O)C1)c1ccccc12 |  |
|  |  | NS(=O)(=O)OC[C@H]1O[C@@H](n2cnc3c(N[C@H]4CCc5ccccc54)ncnc32)[C@H](O)[C@@H]1O | IC50 (NEDD8 activating enzyme [3]): 10 nM |
| 9.76 | 94.4 | CC(C)(C)OC(=O)N1CCC2(CC1)C[C@H](Nc1ncnc3c1nnn3[C@@H]1C[C@@H](COS(N)(=O)=O)[C@@H](O)C1)c1ccccc12 | IC50 [2]: > 40000 nM |
| 15.9 | > 10000 | NS(=O)(=O)OC[C@@H]1C[C@@H](n2nnc3c(NCc4cccs4)ncnc32)C[C@@H]1O |  |
| 66.9 |  | NS(=O)(=O)OC[C@@H]1C[C@@H](n2nnc3c(N[C@H]4CC5(CCNCC5)c5ccccc54)ncnc32)C[C@@H]1O |  |
| 120 |  | NS(=O)(=O)OC[C@@H]1C[C@@H](n2nnc3c(N[C@H]4CC5(CCN(C(=O)OC(CO)CO)CC5)c5ccccc54)ncnc32)C[C@@H]1O |  |
| 4.2 | 121 | CC(C)OC(=O)N1CCC2(CC1)C[C@H](Nc1ncnc3c1nnn3[C@@H]1C[C@@H](COS(N)(=O)=O)[C@@H](O)C1)c1ccccc12 |  |
| 219 |  | NS(=O)(=O)OC[C@@H]1C[C@@H](Nc2ncnc(N[C@H]3CCc4ccccc43)c2F)C[C@@H]1O |  |
|  |  | CCOc1cccc(F)c1C#Cc1cn([C@@H]2O[C@H](COS(N)(=O)=O)[C@@H](O)[C@H]2O)c2ncnc(N)c12 | IC50 (NEDD8 activating enzyme [4]): 8 nM; IC50 (NEDD8 activating enzyme [3]): 1 nM |
| 5.77 | 1420 | COCC(=O)N1CCC2(CC1)C[C@H](Nc1ncnc3c1nnn3[C@@H]1C[C@@H](COS(N)(=O)=O)[C@@H](O)C1)c1ccccc12 |  |

| SMILES | IC50 (NEDD8 activating enzyme [1]) [nM] | IC50 (HCT-116) [nM] | further results |
| --- | --- | --- | --- |
| CN1CCC2(CC1)C[C@H](Nc1ncnc3c1nnn3[C@@H]1C[C@@H](COS(N)(=O)=O)[C@@H](O)C1)c1ccccc12 | 187 |  |  |

— ChEMBL document CHEMBL5149982, “Development of Potent NEDD8-Activating Enzyme Inhibitors Bearing a Pyrimidotriazole Scaffold” (J Med Chem, 2021)
